Reference: patent publication US20180133211A1, “METHODS AND MATERIALS FOR PROMOTING BONE FORMATION” (Mayo Foundation for Medical Education and Research, priority 2015, published 2018)

How the values were obtained:
Mesenchymal stem cells = experiment: RNA-Seq of mesenchymal stem cells treated with BMP2 and/or GSK126; assay type: cell-based, human; details: 2 μM GSK126 together with 50 ng/ml BMP2
Experimental: mRNASeq was performed on the following samples: 1) MSCs grown on plastic or titanium disks in osteogenic cocktail (one sample from each time-point, samples created by pooling biological triplicates), 2) RNA from d3 AMCs treated with vehicle or 2 μM GSK126 in osteogenic cocktail (three samples from each treatment group), 3) RNA from d3, d6, and d10 MC3T3 treated with vehicle or 5 μM GSK126 (one sample from each treatment group at each time-point, samples created by pooling biological triplicates), 4) RNA from three day old female WT or cKO (Prrx1-Ezh2) (one sample from each genotype, pooling of RNA from three (WT) and two (cKO)), and one sample of MSCs in adipogenic cocktail for six days. High throughput mRNA sequencing and bioinformatic analyses (mRNASeq) were performed as described elsewhere (Dudakovic et al., J. Cell Biochem., 115:1816-1828 (2014)).
In addition, osteogenic genes are synergistically activated by GSK126 and BMP2. Mesenchymal stem cells were treated with 50 ng/ml BMP2 and/or 2 μM GSK126. […] Thus, EZH2 inhibition enhances the osteogenic potential of cells treated with BMP2, a key osteogenic activator.

[1] = tested on: sham operated or ovariectomized (OVX) mice; experiment: Quantitative backscattered electron imaging (qBEI) of bone mineralization, SFN in vivo; set-up: species or system mouse; details: two-way ANOVA
Experimental: Analysis of SFN on mice was performed using a protocol similar to that described elsewhere (Kong et al., Arthritis Rheum., 62:159-170 (2010)). In the experimental setting herein, eight week old sham operated or ovariectomized (OVX) C57B16/J female mice were purchased from Charles River laboratories. Mice were injected with 7.5 mM DL-SFN (200 μL of SFN at a concentration of 63.8 mg/mL/kg dissolved in ethanol and further diluted in PBS) intraperitoneally every other day for five weeks. Control mice received vehicle alone.
Un-decalcified distal femora from 13 weeks old mice, sham/Crt (n=5), sham/DL-SFN (n=5), OVX/ctrl (n=4) and OVX/DL-SFN (n=5), were fixed and dehydrated in alcohol, embedded in polymethylmethacrylate (PMMA), and prepared for backscattered electron imaging as previously described. qBEI is based on backscattering of electrons from the surface-layer (i.e., the initial ˜1.5 micron) of a bone section. The rate of these backscattered electrons is proportional to the weight concentration of mineral (hydroxyapatite), and thus of that of calcium in bone. Details of the method were described elsewhere (Roschger et al., Bone, 42:456-466 (2008)). A scanning electron microscope (DSM 962, Zeiss, Oberkochen, Germany) equipped with a four quadrant semiconductor backscattered electron detector was used. […]

[2] = tested on: Runx2 protein in MC3T3-E1 cells; experiment: Runx2 immunoblotting; assay type: cell-based, mouse; details: MC3T3-E1, 3 μM, after both 24 hours and 14 days
Experimental: Whole cell protein extracts were prepared using SDS sample buffer (2% SDS, 100 mM β-mercaptoethanol and 125 mM Tris-HCl, pH=6.8) and heated at 95° C. for 5 minutes. To obtain supernatant protein extracts, cell medium was collected, and proteins were precipitated with 50% trichloroacetic acid at 4° C. for 1 hour, concentrated by centrifugation, neutralized with PBS, and dissolved in SDS sample buffer.
For immunoblotting analysis, 15 μg of protein extracts were separated on 10% SDS poly-acryl amide gels, transferred to nitrocellulose membranes (Millipore), and blocked overnight with 10% blocking reagent (Roche) in TN buffer (50 mM Tris and 125 mM NaCl, pH=8.0). The following primary antibodies were used: rabbit, anti-Runx2 (sc-10758, Santa Cruz Biotechnologies, Santa Cruz, Calif.) and rabbit, anti-β-Actin (#4967, Cell Signaling, Danvers, Mass., USA). Washing was performed with TN buffer containing 0.01% Tween. Binding of the secondary antibody (anti-rabbit IgG/anti-mouse IgG horseradish peroxidase-coupled) (Roche) diluted 1:10,000 in 10% blocking solution followed by detection with the BM chemo-luminescence immunoblotting kit (Roche) was carried out as described by the supplier. Chemo-luminescence was measured with an image acquisition system (Vilber Lourmat, Marne-la-Vallée, France). Measurements are given as means of 3 immuno-blots, and representative blots are shown.

Row | SMILES | expression of key osteogenic factors DLXS, SP7, IBSP (Mesenchymal stem cells) | CaPeak and CaWidth of trabecular bone (qBEI) [1] | Runx2 protein expression [2]
1 | CC[C@H](C)n1cc(C)c2c(C(=O)NCc3c(C)cc(C)[nH]c3=O)cc(-c3ccc(N4CCNCC4)nc3)cc21 [GSK126, N-[(1,2-dihydro-4,6-dimethyl-2-oxo-3-pyridinyl)methyl]-3-methyl-1-[(1S)-1-methylpropyl]-6-[6-(1-piperazinyl)-3-pyridinyl]-1H-indole-4-carboxamide] | synergistically enhanced |  | 
2 | C[S+]([O-])CCCCN=C=S (racemic) [DL-SFN] |  | no effects | significant increase
